In patent US11098055B2, “Ester ACC inhibitors and uses thereof” (Gilead Apollo, LLC, priority 2015, dated 2021):
In brackets after ≈: the same amount, converted by molar mass. Where two headings read alike, the source gives them in different places.

How the values were obtained:
Septoria tritici (St) = experiment: Growth inhibition assay of fungal pathogens; format: cell-based; details: Zymoseptoria tritici, 48 h, read-out: Concentration at 90% Inhibition St
Method in brief: (§1)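 Inoculum density for each fungus is set from 48 h growth curves, and spores are suspended in 17% V8 liquid medium. Compounds are added to final 50, 10, 2 ppm or 2, 0.4, 0.08 ppm. Plates are read by OD600 at 24 and 48 h; inhibition is scored at 48 h versus 2% DMSO.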

[1] = system: Fusarium moniliforme (Fm); experiment: Growth inhibition assay of fungal pathogens; format: cell-based; details: Fusarium verticillioides, 48 h, read-out: Concentration at 90% Inhibition Fm
Method in brief: as §1

[2] = system: Phytophthora capsici (Pc); experiment: Growth inhibition assay of fungal pathogens; format: cell-based; details: 48 h, read-out: Concentration at 90% Inhibition Pc
Method in brief: as §1

Botrtyis cinerea (Bc) = experiment: Growth inhibition assay of fungal pathogens; format: cell-based; details: 48 h, read-out: Concentration at 90% Inhibition Bc
Method in brief: as §1

Diplodia maydis (Dm) = experiment: Growth inhibition assay of fungal pathogens; format: cell-based; details: Stenocarpella maydis, 48 h, read-out: Concentration at 90% Inhibition Dm
Method in brief: as §1

[3] = system: Fusarium virguliforme (Fv); experiment: Growth inhibition assay of fungal pathogens; format: cell-based; details: 48 h, read-out: Concentration at 90% Inhibition Fv
Method in brief: as §1

[4] = system: Collectotrichum graminicola (Cg); experiment: Growth inhibition assay of fungal pathogens; format: cell-based; details: 48 h, read-out: Concentration at 90% Inhibition Cg
Method in brief: as §1

Rhizoctonia solani (Rs) = experiment: Growth inhibition assay of fungal pathogens; format: cell-based; details: 48 h, read-out: Concentration at 90% Inhibition Rs
Method in brief: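 Percent growth inhibition is scored at 48 h, by OD600 (blank-subtracted) and visual rating against the 2% DMSO control. Compounds were tested at final 50, 10, 2 ppm or 2, 0.4, 0.08 ppm on pathogen spores diluted in 17% V8 medium; mycelial plugs in ¼ PDB were used for Rhizoctonia.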

hACC2 = hACC2 (Homo sapiens, UniProt O00763); experiment: In vitro ACC2 inhibition assay (ADP-Glo), human ACC2; format: biochemical
Method in brief: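 ADP-Glo luminescent ADP detection with 5 nM ACC2, 20 μM ATP, 20 μM acetyl-CoA, 12 mM NaHCO3, 2 mM DTT, 5% DMSO; compound (30 μM-0.00051 μM, 11 points) preincubated 15 min, reaction 60 min at room temperature. Percent inhibition against DMSO and positive controls; IC50 by four-parameter nonlinear fit.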

Sequence of hACC2 (O00763 whole entry): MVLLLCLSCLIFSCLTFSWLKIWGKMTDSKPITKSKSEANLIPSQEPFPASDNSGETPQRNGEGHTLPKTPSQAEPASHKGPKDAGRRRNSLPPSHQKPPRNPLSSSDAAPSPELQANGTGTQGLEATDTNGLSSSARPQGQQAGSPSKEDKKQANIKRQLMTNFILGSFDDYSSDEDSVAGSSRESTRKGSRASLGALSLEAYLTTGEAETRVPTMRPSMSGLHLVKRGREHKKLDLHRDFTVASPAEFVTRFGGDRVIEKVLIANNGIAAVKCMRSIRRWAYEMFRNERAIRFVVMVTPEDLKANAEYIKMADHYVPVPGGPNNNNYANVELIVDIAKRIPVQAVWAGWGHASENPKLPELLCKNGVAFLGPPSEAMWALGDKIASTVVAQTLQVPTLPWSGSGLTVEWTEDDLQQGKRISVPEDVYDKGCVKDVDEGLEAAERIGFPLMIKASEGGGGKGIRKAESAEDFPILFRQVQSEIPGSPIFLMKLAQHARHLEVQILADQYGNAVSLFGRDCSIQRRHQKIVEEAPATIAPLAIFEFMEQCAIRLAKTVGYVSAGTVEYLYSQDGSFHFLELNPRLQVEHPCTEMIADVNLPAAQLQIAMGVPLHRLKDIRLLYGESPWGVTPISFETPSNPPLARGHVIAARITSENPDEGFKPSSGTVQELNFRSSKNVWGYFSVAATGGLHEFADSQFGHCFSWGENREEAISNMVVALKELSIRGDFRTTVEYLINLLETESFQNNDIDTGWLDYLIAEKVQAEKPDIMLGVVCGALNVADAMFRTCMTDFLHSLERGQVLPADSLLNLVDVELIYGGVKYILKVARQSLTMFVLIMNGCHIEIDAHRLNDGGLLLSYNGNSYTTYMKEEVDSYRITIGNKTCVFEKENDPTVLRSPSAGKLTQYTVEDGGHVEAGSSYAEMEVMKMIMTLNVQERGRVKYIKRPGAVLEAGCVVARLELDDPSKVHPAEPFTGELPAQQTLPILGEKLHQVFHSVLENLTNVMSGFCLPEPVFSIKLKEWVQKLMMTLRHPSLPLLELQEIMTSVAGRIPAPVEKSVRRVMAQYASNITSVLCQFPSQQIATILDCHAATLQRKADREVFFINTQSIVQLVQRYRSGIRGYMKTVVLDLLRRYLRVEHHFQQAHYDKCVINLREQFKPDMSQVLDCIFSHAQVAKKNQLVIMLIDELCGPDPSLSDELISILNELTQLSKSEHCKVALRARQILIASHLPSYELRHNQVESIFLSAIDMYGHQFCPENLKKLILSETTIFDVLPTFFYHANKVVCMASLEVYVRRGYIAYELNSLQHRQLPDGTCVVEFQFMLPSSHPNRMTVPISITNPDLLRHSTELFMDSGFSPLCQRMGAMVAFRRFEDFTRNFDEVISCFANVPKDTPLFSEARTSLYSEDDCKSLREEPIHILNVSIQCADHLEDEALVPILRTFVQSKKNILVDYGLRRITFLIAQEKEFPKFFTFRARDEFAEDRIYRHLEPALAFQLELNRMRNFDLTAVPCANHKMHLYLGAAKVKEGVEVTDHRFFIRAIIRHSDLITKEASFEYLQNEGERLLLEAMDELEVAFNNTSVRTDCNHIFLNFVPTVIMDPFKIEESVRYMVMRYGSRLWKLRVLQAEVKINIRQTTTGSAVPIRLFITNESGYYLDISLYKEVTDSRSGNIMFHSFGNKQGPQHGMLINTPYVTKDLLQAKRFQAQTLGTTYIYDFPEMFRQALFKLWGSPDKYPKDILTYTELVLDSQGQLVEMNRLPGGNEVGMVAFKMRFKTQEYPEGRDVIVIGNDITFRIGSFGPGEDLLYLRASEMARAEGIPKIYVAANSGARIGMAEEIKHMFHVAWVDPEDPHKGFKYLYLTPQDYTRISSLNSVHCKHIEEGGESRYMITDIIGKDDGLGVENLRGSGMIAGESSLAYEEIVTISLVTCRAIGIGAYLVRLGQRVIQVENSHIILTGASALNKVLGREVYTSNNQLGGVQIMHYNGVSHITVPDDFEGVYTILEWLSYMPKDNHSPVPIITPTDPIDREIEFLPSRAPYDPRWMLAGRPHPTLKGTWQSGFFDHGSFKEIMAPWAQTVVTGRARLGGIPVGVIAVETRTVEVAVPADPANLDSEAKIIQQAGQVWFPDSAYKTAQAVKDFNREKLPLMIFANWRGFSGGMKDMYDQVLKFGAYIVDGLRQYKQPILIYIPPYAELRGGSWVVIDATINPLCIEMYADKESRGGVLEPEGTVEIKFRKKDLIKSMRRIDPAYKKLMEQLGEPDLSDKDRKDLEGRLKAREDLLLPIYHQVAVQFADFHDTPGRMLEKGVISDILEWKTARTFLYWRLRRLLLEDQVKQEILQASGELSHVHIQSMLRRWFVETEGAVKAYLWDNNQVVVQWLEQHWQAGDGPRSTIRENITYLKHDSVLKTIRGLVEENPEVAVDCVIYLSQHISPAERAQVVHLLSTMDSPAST

SMILES	IC90 (Septoria tritici (St); Table 4b) [µg/mL]	IC90 ([1]; Table 4b) [µg/mL]	IC90 ([2]; Table 4b) [µg/mL]	IC90 (Botrtyis cinerea (Bc); Table 4b) [µg/mL]	IC90 (Diplodia maydis (Dm); Table 4b) [µg/mL]	IC90 ([3]; Table 4b) [µg/mL]	IC90 ([4]; Table 4b) [µg/mL]	IC90 (Rhizoctonia solani (Rs); Table 4b) [µg/mL]	IC50 (hACC2; Table 2b (additional results)) [nM]	IC90 (Septoria tritici (St); Table 4a) [µg/mL]	IC90 ([1]; Table 4a) [µg/mL]	IC90 ([2]; Table 4a) [µg/mL]	IC90 (Botrtyis cinerea (Bc); Table 4a) [µg/mL]	IC90 (Diplodia maydis (Dm); Table 4a) [µg/mL]	IC90 ([3]; Table 4a) [µg/mL]	IC90 ([4]; Table 4a) [µg/mL]	IC90 (Rhizoctonia solani (Rs); Table 4a) [µg/mL]	IC50 (hACC2; Table 2a) [nM]
CCNC(=O)[C@H](C)n1c(=O)c2c(C)c(C(=O)OCC)sc2n(C[C@H](OCCC#N)c2cc(F)ccc2OC)c1=O [Compound I-42, ethyl 1-((R)-2-(2-cyanoethoxy)-2-(5-fluoro-2-methoxyphenyl)ethyl)-3-((S)-1-(ethylamino)-1-oxopropan-2-yl)-5-methyl-2,4-dioxo-1,2,3,4-tetrahydrothieno[2,3-d]pyrimidine-6-carboxylate]	≥ 50	0.08 (≈ 0.139 µM)	≥ 50	0.4 (≈ 0.696 µM)	2 (≈ 3.48 µM)	0.4 (≈ 0.696 µM)	2 (≈ 3.48 µM)	2 (≈ 3.48 µM)	3 to 10	–	–	–	–	–	–	–	–	–
CCOC(=O)c1sc2c(c1C)c(=O)n(C(C)(C)C(=O)N1CCCC1)c(=O)n2C[C@H](OCCO)c1cc(F)ccc1OC [Compound I-12, (R)-ethyl 1-(2-(5-fluoro-2-methoxyphenyl)-2-(2-hydroxy-ethoxy)ethyl)-5-methyl-3-(2-methyl-1-oxo-1-(pyrrolidin-1-yl)propan-2-yl)-2,4-dioxo-1,2,3,4-tetrahydrothieno[2,3-d]pyrimidine-6-carboxylate]	≥ 50	0.4 (≈ 0.66 µM)	≥ 50	2 (≈ 3.3 µM)	2 (≈ 3.3 µM)	2 (≈ 3.3 µM)	0.4 (≈ 0.66 µM)	0.4 (≈ 0.66 µM)	3 to 10	≥ 50	0.4 (≈ 0.66 µM)	≥ 50	2 (≈ 3.3 µM)	2 (≈ 3.3 µM)	2 (≈ 3.3 µM)	0.4 (≈ 0.66 µM)	0.4 (≈ 0.66 µM)	3 to 10
CCOC(=O)c1sc2c(c1C)c(=O)n([C@H](C)C(=O)NC(C)C)c(=O)n2C[C@H](O)c1cc(F)ccc1OC [Compound I-43, ethyl 1-((R)-2-(5-fluoro-2-methoxyphenyl)-2-hydroxyethyl)-3-((R)-1-(isopropylamino)-1-oxopropan-2-yl)-5-methyl-2,4-dioxo-1,2,3,4-tetrahydrothieno[2,3-d]pyrimidine-6-carboxylate]	≥ 50	0.08 (≈ 0.149 µM)	≥ 50	2 (≈ 3.73 µM)	10 (≈ 18.7 µM)	0.4 (≈ 0.747 µM)	10 (≈ 18.7 µM)	2 (≈ 3.73 µM)	≥ 40	–	–	–	–	–	–	–	–	–
CCOC(=O)c1sc2c(c1C)c(=O)n(C(C)(C)C(=O)NC(C)C)c(=O)n2C[C@H](OC[C@H](C)C#N)c1cc(F)ccc1OC [Compound I-34, ethyl 1-((R)-2-((R)-2-cyanopropoxy)-2-(5-fluoro-2-methoxyphenyl)ethyl)-3-(1-(isopropylamino)-2-methyl-1-oxopropan-2-yl)-5-methyl-2,4-dioxo-1,2,3,4-tetrahydrothieno[2,3-d]pyrimidine-6-carboxylate]	2 (≈ 3.24 µM)	0.08 (≈ 0.13 µM)	10 (≈ 16.2 µM)	0.4 (≈ 0.649 µM)	0.4 (≈ 0.649 µM)	0.4 (≈ 0.649 µM)	0.08 (≈ 0.13 µM)	0.08 (≈ 0.13 µM)	10 to 40	–	–	–	–	–	–	–	–	–
CCOC(=O)c1sc2c(c1C)c(=O)n(C(C)(C)C(N)=O)c(=O)n2C[C@H](OCCO)c1cc(F)ccc1OC [Compound I-17, (R)-ethyl 3-(1-amino-2-methyl-1-oxopropan-2-yl)-1-(2-(5-fluoro-2-methoxyphenyl)-2-(2-hydroxyethoxy)ethyl)-5-methyl-2,4-dioxo-1,2,3,4-tetrahydro-thieno[2,3-d]pyrimidine-6-carboxylate]	≥ 50	2 (≈ 3.63 µM)	≥ 50	10 (≈ 18.1 µM)	≥ 50	≥ 50	≥ 50	2 (≈ 3.63 µM)	–	≥ 50	2 (≈ 3.63 µM)	≥ 50	≥ 50	≥ 50	≥ 50	≥ 50	2 (≈ 3.63 µM)	10 to 40
CCOC(=O)c1sc2c(c1C)c(=O)n(C(C)(C)C(N)=O)c(=O)n2C[C@H](OCCC#N)c1cc(F)ccc1OC [Compound I-14, (R)-ethyl 3-(1-amino-2-methyl-1-oxopropan-2-yl)-1-(2-(2-cyanoethoxy)-2-(5-fluoro-2-methoxyphenyl)ethyl)-5-methyl-2,4-dioxo-1,2,3,4-tetrahydro-thieno[2,3-d]pyrimidine-6-carboxylate]	≥ 50	0.4 (≈ 0.714 µM)	≥ 50	2 (≈ 3.57 µM)	≥ 50	10 (≈ 17.8 µM)	≥ 50	10 (≈ 17.8 µM)	–	≥ 50	0.4 (≈ 0.714 µM)	≥ 50	2 (≈ 3.57 µM)	≥ 50	≥ 50	≥ 50	≥ 50	3 to 10
